Source: patent publication US8816095B2, “Na channels, disease, and related assays and compositions” (Georgetown University, priority 2008, dated 2014)

Tests used:
hNav1.5 = target: T1, hNav1.5 (Homo sapiens, UniProt Q14524); assay: Fluorescent (FRET) based sodium channel assay, hNav1.5; format: cell-based; conditions: HEK293 stably transfected with hNav1.5, 10 μM veratridine, read-out: hNav 1.5 IC50
T1 construct: expressed in transfected cells; host or cells: HEK293
Protocol: Two isoforms of the channel were examined: hNav1.5, a cardiac sodium channel associated with arrhythmias, and hNav1.7, an isoform found in the peripheral nervous system.
HEK293 cells stably transfected with either hNav1.5 or hNav1.7 were plated at approximately 11,000-20,000 cells/well in flat bottom, poly-D-lysine coated black-wall, clear-bottom, 384-well plates (Becton Dickinson, Bedford, Mass.), and incubated overnight at 37° C. in a 10% CO2 atmosphere in growth medium. Cells were washed with 0.03 mL of Dulbecco's phosphate buffered saline (D-PBS) containing calcium and magnesium. Cells were then incubated with 0.025 mL of a solution containing 10 μM CC2-DMPE and 0.02% pluronic acid in D-PBS with calcium and magnesium; supplemented with 10 mM glucose, and 10 mM Hepes-NaOH, pH 7.4. […] At the end of the incubation period, the plate was placed in a FLIPR TETRA instrument (MDS Analytical Technologies, Sunnyvale Calif.), illuminated at 390-420 nm, and fluorescence emissions were recorded at approximately 1 Hz at 460 and 580 nm. Following a 7 second baseline reading, 0.025 mL of VIPR-S containing 10 μM veratridine for Nav1.5 or 20 μM veratridine for Nav1.7 was added to each well, and the emissions of both dyes were recorded for an additional 33 seconds. […]

human Nav1.2 = target: T2, human Nav1.2 (Homo sapiens, UniProt Q99250); assay: hNav1.2 functional block, whole-cell patch clamp; format: cell-based
T2 construct: host or cells: HEK
Protocol: Of the 20 analogs tested, six had [^3H]-BTX displacement characteristics much greater then that of phenyloin (Table 7), see Schemes 5, 6, 7 and 8 for the chemical synthesis and structure of the tested compounds. Compound 26, having the greatest [^3H]-BTX displacement at 86% ([…]), was further tested for VGSC functional blocking ability in HEK cells stably expressing Nav1.2 (Table 8).
In addition the functional blocking ability of 9 was tested after site two affinities was confirmed. The potential reason for this increased blocking ability stems from the dansyl addition in a hydrophobically receptive region of the binding site in the VGSC (Anderson, J. D., et al. Mol. Cancer. Ther. 2003, 2, 1149-1154; Lenkowski, P et al. Neuropharmacology, 2007, 52, 1044-1054). This enhanced potency could be due to the dansyl substituent interacting with L1465 and 11469, located in S6 of domain III in the binding site, which are believed to be the source of hydrophobic receptivity 17. The ability to inhibit VGSC currents is an important property and represents functional blocking. The ability of CDPNS to inhibit sodium channel currents was assessed at 10 and 100 μM against human Nav1.2 by patch clamp assay (FIG. 10).
Human embryonic kidney cells (HEK) cells stably expressing human Nav1.2 were a kind gift from Dr. H. A. Hartmann (University of Baltimore, Md., USA) and were grown in DMEM/F12 media (Invitrogen, Corp, CA, USA) supplemented with 10% fetal bovine serum, penicillin (100 U/ml), streptomycin (100 μg/ml) and G418 (500 μg/ml; Sigma, Mo., USA). Cells were grown in a humidified atmosphere of 5% CO2 and 95% air at 37° C.
Sodium currents were recorded using the whole-cell configuration of the patch clamp recording technique with an Axopatch 200 amplifier (Axon Instruments, Foster City, Calif.). All voltage protocols were applied using pCLAMP 9 software (Axon, USA) and a Digidata 1322A (Axon, USA). Currents were amplified and low pass filtered (2 kHz) and sampled at 33 kHz. Borosilicate glass pipettes were pulled using a Brown-Flaming puller (model P87, Sutter Instruments Co, Novato, Calif.) and heat polished to produce electrode resistances of 0.5-1.5 MΩ when filled with the following electrode solution (in mM); CsCl 130, MgCl2 1, MgATP 5, BAPTA 10, HEPES 5 (pH adjusted to 7.4 with CsOH). Cells were plated on glass coverslips and superfused with solution containing the following composition; (in mM) NaCl 130, KCl 4, CaCl2 1, MgCl2 5, HEPES 5, and glucose 5 (pH adjusted to 7.4 with NaOH).
Compound 26 was prepared as 100 mM stock solutions in dimethyl sulfoxide (DMSO) and diluted to desired concentration in perfusion solution. The maximum DMSO concentration used was 0.1% and had no effect on current amplitude. All experiments were performed at room temperature (20-22° C.). After establishing whole-cell, a minimum series resistance compensation of 75% was applied. Sodium currents were elicited by a depolarizing step from a holding potential of −100 mV to +10 mV for a duration of 25 ms at 15 s intervals. Compound 26 was applied after a 3 min control period and continued until a steady state current amplitude was observed. All data represent percentage mean block±standard error of the mean (S.E.M.).

[1] = Incidence of prostate cancer in epileptic men treated with sodium channel blockers; set-up: species or system human; conditions: 1427 epileptic men given drug vs 14270 control, 1994 to 2003
Excerpt: The incidence of prostate cancer in epileptic men treated with sodium channel blockers was studied from 1994 to 2003. In the study, 1427 epileptic men were given phenyloin as a sodium channel blocker while 14270 epileptic men were not given a sodium channel blocker (control).

neuronal VGSCs = conditions: read-out: inactivated state-dependent blocking activity IC50 in neuronal VGSCs; cited from earlier work

T2 sequence (Q99250 whole entry): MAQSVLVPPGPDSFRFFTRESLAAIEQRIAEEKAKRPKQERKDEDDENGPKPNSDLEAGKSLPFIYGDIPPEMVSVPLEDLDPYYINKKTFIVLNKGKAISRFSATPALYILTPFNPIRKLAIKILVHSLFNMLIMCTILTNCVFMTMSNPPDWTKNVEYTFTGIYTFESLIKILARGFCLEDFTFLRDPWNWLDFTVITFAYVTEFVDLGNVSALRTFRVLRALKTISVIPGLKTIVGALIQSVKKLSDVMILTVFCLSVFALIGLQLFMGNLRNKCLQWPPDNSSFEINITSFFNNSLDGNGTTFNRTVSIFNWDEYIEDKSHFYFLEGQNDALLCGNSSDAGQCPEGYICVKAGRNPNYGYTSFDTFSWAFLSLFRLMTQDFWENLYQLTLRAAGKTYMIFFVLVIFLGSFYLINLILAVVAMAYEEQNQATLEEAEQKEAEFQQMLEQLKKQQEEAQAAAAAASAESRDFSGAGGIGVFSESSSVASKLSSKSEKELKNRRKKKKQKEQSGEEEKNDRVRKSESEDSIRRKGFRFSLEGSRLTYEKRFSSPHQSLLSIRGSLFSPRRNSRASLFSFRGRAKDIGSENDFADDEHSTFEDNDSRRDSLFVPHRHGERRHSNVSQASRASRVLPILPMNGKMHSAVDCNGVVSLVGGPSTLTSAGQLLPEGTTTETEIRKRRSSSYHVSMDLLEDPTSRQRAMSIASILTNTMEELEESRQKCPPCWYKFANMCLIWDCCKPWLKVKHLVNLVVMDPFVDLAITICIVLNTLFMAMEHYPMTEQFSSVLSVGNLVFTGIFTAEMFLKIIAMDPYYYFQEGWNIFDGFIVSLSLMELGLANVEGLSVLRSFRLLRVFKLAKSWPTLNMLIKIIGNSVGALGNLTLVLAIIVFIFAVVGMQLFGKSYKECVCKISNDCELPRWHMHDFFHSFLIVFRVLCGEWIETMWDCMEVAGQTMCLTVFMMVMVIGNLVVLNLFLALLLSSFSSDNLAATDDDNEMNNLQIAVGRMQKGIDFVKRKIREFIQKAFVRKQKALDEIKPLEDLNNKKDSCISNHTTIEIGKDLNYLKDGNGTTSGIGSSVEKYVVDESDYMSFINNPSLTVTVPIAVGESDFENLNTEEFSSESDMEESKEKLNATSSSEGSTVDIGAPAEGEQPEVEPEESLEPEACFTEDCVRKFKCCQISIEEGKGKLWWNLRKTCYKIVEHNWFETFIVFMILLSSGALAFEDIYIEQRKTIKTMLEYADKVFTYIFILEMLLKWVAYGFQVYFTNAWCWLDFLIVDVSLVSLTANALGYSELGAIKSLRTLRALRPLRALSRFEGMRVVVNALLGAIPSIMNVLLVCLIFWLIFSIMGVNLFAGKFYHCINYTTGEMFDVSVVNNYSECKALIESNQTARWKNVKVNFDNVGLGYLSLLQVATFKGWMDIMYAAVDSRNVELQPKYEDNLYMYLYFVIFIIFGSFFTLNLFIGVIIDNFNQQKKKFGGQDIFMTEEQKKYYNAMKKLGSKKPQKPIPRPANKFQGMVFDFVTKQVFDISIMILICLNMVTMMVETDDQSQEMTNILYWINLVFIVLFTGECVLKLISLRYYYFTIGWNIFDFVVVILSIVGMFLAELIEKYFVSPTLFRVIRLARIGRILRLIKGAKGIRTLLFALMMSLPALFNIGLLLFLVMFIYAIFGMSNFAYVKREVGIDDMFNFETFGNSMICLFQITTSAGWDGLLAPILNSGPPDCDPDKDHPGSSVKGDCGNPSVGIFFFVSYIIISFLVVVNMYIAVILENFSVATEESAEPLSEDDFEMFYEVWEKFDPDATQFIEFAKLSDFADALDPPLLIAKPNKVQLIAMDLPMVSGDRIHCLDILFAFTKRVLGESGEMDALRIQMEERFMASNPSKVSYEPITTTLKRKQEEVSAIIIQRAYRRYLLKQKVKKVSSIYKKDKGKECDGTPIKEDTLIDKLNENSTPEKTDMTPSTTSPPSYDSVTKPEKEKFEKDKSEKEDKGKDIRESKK
T1 sequence (Q14524 whole entry): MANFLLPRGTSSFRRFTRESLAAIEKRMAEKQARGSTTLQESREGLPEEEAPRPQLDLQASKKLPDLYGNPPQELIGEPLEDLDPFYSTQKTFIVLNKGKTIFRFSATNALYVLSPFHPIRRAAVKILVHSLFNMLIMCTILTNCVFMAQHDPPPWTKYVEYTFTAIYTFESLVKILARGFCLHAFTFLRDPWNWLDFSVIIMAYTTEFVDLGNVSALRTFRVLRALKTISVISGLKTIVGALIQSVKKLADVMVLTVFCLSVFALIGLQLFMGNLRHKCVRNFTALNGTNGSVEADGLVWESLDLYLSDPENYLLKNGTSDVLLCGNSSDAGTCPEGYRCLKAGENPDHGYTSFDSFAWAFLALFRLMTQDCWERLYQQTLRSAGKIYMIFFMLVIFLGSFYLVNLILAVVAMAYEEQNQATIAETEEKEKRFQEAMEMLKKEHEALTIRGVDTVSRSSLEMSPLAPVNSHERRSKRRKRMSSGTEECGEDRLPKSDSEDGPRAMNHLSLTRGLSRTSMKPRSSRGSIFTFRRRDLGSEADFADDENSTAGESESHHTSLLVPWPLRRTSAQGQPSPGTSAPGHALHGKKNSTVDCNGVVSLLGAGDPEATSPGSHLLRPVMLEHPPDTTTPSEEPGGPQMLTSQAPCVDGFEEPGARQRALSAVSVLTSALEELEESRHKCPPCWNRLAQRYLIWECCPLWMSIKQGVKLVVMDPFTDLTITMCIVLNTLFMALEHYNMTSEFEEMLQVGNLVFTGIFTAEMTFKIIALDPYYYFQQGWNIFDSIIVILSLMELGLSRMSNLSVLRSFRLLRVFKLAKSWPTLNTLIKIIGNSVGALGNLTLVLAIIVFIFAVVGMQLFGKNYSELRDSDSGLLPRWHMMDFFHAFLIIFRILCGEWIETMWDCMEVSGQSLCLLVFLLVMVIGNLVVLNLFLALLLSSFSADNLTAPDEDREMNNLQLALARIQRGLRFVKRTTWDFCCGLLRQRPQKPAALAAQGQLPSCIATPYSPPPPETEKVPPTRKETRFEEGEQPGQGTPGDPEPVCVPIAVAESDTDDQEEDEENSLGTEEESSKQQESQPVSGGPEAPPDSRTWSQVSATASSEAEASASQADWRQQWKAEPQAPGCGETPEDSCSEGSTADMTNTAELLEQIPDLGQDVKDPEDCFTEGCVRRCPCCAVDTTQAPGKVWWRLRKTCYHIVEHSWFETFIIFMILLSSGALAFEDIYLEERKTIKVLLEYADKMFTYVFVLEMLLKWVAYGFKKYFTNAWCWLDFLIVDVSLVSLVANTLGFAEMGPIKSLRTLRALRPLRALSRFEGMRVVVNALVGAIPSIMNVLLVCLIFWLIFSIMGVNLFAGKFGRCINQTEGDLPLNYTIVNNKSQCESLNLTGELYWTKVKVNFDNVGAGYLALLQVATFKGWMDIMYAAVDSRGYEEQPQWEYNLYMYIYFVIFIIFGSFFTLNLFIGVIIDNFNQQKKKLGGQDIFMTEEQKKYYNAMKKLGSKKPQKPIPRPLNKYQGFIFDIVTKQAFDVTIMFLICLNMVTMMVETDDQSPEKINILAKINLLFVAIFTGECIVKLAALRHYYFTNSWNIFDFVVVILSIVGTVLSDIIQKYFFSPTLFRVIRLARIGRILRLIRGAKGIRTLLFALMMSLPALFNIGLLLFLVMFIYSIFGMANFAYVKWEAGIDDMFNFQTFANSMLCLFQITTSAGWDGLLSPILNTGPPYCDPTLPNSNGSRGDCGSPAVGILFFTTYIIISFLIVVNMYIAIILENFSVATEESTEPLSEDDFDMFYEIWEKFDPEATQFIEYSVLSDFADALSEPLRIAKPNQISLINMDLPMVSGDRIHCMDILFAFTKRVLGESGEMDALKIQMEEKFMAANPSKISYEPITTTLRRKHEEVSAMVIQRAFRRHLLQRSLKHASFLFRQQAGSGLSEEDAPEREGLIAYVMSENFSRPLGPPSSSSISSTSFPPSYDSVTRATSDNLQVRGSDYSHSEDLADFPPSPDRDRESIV

## O=C1NC(=O)C(c2ccccc2)(c2ccccc2)N1 [DPH, Diphenylhydantoin, reference compound]
hNav1.5
  IC50: > 100 µM
Human Nav1.2; Table 8
  % hNaV 1.2 Functional Block (10 μM): 10.9 ± 4.2%
Human Nav1.2; Table 9
  % hNaV 1.2 Functional Block (10 μM): 10.9 ± 4.2%
Human Nav1.2; 10 μm, Table 13
  % Nav 1.2 Functional Block (10 μm): 10.9 ± 4.2%
[1]
  less likely to be diagnosed with prostate cancer: 40%
Neuronal VGSCs
  IC50: 40 µM
